This is an account of results in patent US20060167020A1, “Pyrazolopyrimidines as kinase inhibitors” (priority 2002, published 2006).

In this test the target is GSK-3β (Homo sapiens, UniProt P49841). Kind of test: GSK3 kinase scintillation proximity assay (phosphorylation of biotinylated glycogen synthase peptide). It is filed as biochemical. The settings on record: 20 nM kinase, 2.5 uM ATP, 2.8 uM peptide substrate, 40 minutes at room temperature; pIC50 = -log IC50 in Molar. From the text:
The phosphorylated biotinylated peptide is then captured onto streptavidin coated scintillation proximity assay (SPA) beads from Amersham Technology, where the signal from the ^33P is amplified via the scintillant contained in the beads.
GSK-3β is commercially available or may be cloned and expressed in E coli using standard techniques to produce soluble, active protein. The production of active protein involves purification in two steps using Metal Chelate and Ion Exchange Chromatography. Protein eluting from Ion Exchange provides >90% pure product that may then be concentrated for use in high throughput screening.
The kinase was assayed at a concentration of 20 nM final in 100 mM HEPES, pH 7.2 containing 10 mM magnesium chloride, 0.1 mg/mL bovine serum albumin, 1 mM dithiothreitol, 0.3 mg/mL heparin, 2.8 uM peptide substrate, 2.5 uM ATP, and 0.2 uCi/well γ^33P]-ATP. After 40 minutes incubation at room temperature, the reaction was stopped by addition of 100 mM EDTA and […] in 100 mM HEPES, pH7.2 followed by an additional solution of diluted Streptavidin coated SPA beads in PBS, pH 7.2 to give a final concentration of 0.25 mg of beads per assay well in a 96-well microtiter plate.
10 mM stock solutions of the compounds of the invention in 100% DMSO are generated as a first step in the screening process. The second step involves the creation of dose response plates where these compounds are diluted 10-fold in 100% DMSO to 1 mM concentrations and subsequently serially diluted 3-fold in 100% DMSO across the plate by automated liquid handling such that the final top concentration of inhibitor is 0.033 mM in the 30 uL kinase assay. The third step involves the creation of the assay plates. This is achieved by transferring 1 uL of the compounds to assay plates by automated liquid handling. The fourth step is to perform the assay as described and count the resulting plates in the Packard TopCount NXT microplate scintillation and luminescence counter.
The final step is data acquisition and analysis where IC50 values are generated for each compound by normalizing curve data to the equation 100*(U1−C2)/(C1−C2) (where U1 is the cpm value, C2 is the background, and C1 is the maximum number of counts), then fitting the normalized data to the equation y=Vmax*(1−(x/(K+x))). The IC50 values were converted to pIC50 values, i.e., −log IC50 in Molar concentration. The data is expressed below in Table 1.

Molecules are shown by their SMILES. Where a name gives a salt, the structure may show the parent alone.

Sequence of GSK-3β (P49841 whole entry, species assumed): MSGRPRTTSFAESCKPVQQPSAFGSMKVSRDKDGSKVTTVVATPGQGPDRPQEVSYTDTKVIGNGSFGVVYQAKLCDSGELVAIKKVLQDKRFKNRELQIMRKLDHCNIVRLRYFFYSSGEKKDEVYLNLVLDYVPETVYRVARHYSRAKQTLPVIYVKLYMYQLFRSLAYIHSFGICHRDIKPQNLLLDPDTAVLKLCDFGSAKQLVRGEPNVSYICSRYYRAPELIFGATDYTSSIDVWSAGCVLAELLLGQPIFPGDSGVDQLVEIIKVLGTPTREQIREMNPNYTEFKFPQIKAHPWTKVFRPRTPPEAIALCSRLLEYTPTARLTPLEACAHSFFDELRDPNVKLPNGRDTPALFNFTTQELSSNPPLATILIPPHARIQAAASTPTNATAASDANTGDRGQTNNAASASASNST

Regarding `Nc1ccc(/C=N/Nc2ncnc3c2cnn3-c2ccccn2)cn1` [Example 17, 6-Aminonicotinaldehyde (1-pyridin-2-yl-1H-pyrazolo[3,4-d]pyrimidin-4-yl)hydrazone trifluoroacetate], the concentration for half-maximal inhibition (IC50) (commonly the concentration that gives 50% inhibition) is 1 to 10 µM.
